Measured values published in US20140023611A1 (priority 2010, published 2014).

Target: T1, rat NaP2b (SLC34A2) (Rattus norvegicus, UniProt Q9JJ09)
T1 construct: host or cells: HEK293
T1 sequence (Q9JJ09 1-695): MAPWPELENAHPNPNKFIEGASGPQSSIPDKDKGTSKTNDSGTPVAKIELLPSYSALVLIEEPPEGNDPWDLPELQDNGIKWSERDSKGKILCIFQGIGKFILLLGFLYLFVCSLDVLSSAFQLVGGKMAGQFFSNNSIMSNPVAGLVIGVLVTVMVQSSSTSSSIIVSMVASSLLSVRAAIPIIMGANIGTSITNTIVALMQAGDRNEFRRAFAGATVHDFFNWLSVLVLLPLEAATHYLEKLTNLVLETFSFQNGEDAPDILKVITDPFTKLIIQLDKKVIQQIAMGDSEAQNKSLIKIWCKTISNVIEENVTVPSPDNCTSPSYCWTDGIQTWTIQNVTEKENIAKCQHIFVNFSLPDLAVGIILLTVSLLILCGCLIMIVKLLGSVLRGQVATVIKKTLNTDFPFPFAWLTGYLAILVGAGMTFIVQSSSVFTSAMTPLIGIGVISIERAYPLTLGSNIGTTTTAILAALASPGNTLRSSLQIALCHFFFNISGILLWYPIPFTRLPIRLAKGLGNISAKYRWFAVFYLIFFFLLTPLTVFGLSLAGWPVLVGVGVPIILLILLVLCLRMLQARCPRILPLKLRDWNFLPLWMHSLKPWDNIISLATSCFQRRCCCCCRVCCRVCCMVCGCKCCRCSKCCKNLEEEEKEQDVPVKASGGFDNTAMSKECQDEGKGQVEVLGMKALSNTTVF
Test: Inhibition of NaP2b-mediated Pi (33P) uptake in transfected HEK293 cells, rat NaP2b
Type: cell-based
Conditions: 33P Pi uptake, 0.1 mM phosphate, value given as pIC50 range
Method: HEK293 cells were obtained from the American Type Culture collection and propagated per their instructions. […] The sequence of the human protein was mutated to insert a threonine after residue 37, and to introduce a N39D mutation.
Cells were seeded into 96-well plates at 25,000 cells/well and cultured overnight. Lipofectamine 2000 (Invitrogen) was used to introduce the NaP2b cDNA, and the cells were allowed to approach confluence during a second overnight incubation. […] Each compound was tested at twelve concentrations ranging from 0.1 nM to 30 uM. Assays were run in duplicate.
Cells were lysed by addition of 20 μL 0.1% Tween 80 followed by 100 μL scintillation fluid, and counted using a TopCount (Perkin Elmer).
pIC50 (the negative log of the IC50) values of the test compounds were calculated using GraphPad Prism.

| IC50 | SMILES |
| --- | --- |
| 1 to 7.94 µM | CN(CCn1ccnc1)C(=O)c1cccc(C(=O)Nc2ccc(N3CCCCC3)cc2-c2cc(C(=O)NCc3cccc(C(F)(F)F)c3)ccn2)c1 [Example 4.28] |
| 1 to 7.94 µM | Cc1nc(SCc2cccc(C(=O)Nc3ccc(N4CCCCC4)cc3-c3cc(C(=O)NCc4cccc(C(F)(F)F)c4)ccn3)c2)sc1CC(=O)O [Example 8.16] |
| 10 to 31.6 µM | COCCNC(=O)c1cccc(SCc2cccc(C(=O)Nc3ccc(N4CCCCC4)cc3-c3cc(C(=O)NCc4cccc(C(F)(F)F)c4)ccn3)c2)c1 [Example 10.5] |
| 1 to 7.94 µM | O=C(O)c1ccc(SCc2cccc(C(=O)Nc3ccc(N4CCCCC4)cc3-c3cc(C(=O)NCc4cccc(C(F)(F)F)c4)ccn3)c2)nc1 [Example 8.15] |
| 10 to 31.6 µM | CN1CCN(C(=O)c2cccc(SCc3cccc(C(=O)Nc4ccc(N5CCCCC5)cc4-c4cc(C(=O)NCc5cccc(C(F)(F)F)c5)ccn4)c3)c2)CC1 [Example 10.3] |
| 1 to 7.94 µM | COCCNC(=O)C1CCCN(Cc2cccc(C(=O)Nc3ccc(N4CCCCC4)cc3-c3cc(C(=O)NCc4cccc(C(F)(F)F)c4)ccn3)c2)C1 (stereo in doubt) [Example 12.1, (S)-2-(2-(3-((3-((2-Methoxyethyl)carbamoyl)piperidin-1-yl)methyl)benzamido)-5-(piperidin-1-yl)phenyl)-N-(3-(trifluoromethyl)benzyl)isonicotinamide] |
| 10 to 31.6 µM | COCCNC(=O)CCSCc1cccc(C(=O)Nc2ccc(N3CCCCC3)cc2-c2cc(C(=O)NCc3cccc(C(F)(F)F)c3)ccn2)c1 [Example 4.17, 2-(2-(3-(((3-((2-Methoxyethyl)amino)-3-oxopropyl)thio)methyl)benzamido)-5-(piperidin-1-yl)phenyl)-N-(3-(trifluoromethyl)benzyl)isonicotinamide] |
| 10 to 31.6 µM | O=C(CCSCc1cccc(C(=O)Nc2ccc(N3CCCCC3)cc2-c2cc(C(=O)NCc3cccc(C(F)(F)F)c3)ccn2)c1)NCCN1CCOCC1 [Example 4.16, 2-(2-(3-(((3-((2-Morpholinoethyl)amino)-3-oxopropyl)thio)methyl)benzamido)-5-(piperidin-1-yl)phenyl)-N-(3-(trifluoromethyl)benzyl)isonicotinamide] |
| 10 to 31.6 µM | CN(CCNC(=O)OC(C)(C)C)C(=O)c1cccc(C(=O)Nc2ccc(N3CCCCC3)cc2-c2cc(C(=O)NCc3cccc(C(F)(F)F)c3)ccn2)c1 [Example 4.22] |
| 10 to 31.6 µM | O=C(NCc1cccc(C(F)(F)F)c1)c1ccnc(-c2cc(N3CCCCC3)ccc2NC(=O)c2cccc(CN3CCC(CO)CC3)c2)c1 [Example 8.27] |
| 10 to 31.6 µM | O=C(NCc1cccc(C(F)(F)F)c1)c1ccnc(-c2cc(N3CCCCC3)ccc2NC(=O)c2cccc(CSCCS(=O)(=O)O)c2)c1 [Example 8.13] |

More lines, now with the values behind:

| SMILES | IC50 |
| --- | --- |
| CCN(CC)c1ccc(NC(=O)c2cccc(CCCOCCOCCOCCOCCNS(=O)(=O)c3ccc(C(=O)N(C)CCOCCOCCOCCOCCOCCOCCOC)cc3)c2)c(-c2cc(C(=O)NCc3cccc(C(F)(F)F)c3)ccn2)c1 [Example 287, 2-(2-(3-(1-(4-(2,5,8,11,14,17,20-heptaoxadocosan-22-yl(methyl)carbamoyl)phenylsulfonamido)-3,6,9,12-tetraoxapentadecan-15-yl)benzamido)-5-(diethylamino)phenyl)-N-(3-(trifluoromethyl)benzyl)isonicotinamide] | 1 to 7.94 µM |
| O=C(O)Cc1cccc(SCc2cccc(C(=O)Nc3ccc(Cl)cc3-c3cc(C(=O)NCc4cccc(C(F)(F)F)c4)ccn3)c2)c1 [Example 119] | < 1 µM |
| O=C(O)CCSCc1cccc(C(=O)Nc2ccc(N3CCCCC3)cc2-c2cc(C(=O)NCc3cc(C(F)(F)F)ccc3F)ccn2)c1 [Example 1.30] | 1 to 7.94 µM |
| Cc1cc(C(=O)NCc2cccc(C(F)(F)F)c2)cc(-c2cc(N3CCCCC3)ccc2NC(=O)c2cccc(CSCCC(=O)O)c2)n1 [Example 85] | 1 to 7.94 µM |
| CN(C)CCC#Cc1cccc(C(=O)Nc2ccc(Cl)cc2-c2cc(NCc3cccc(C(F)(F)F)c3)ncn2)c1 [Example 67, N-(4-Chloro-2-(6-(3-(trifluoromethyl)benzylamino)pyrimidin-4-yl)phenyl)-3-(4-(dimethylamino)but-1-ynyl)benzamide 2,2,2-trifluoroacetate] | 10 to 31.6 µM |
| O=C(O)COc1cccc(SCc2cccc(C(=O)Nc3ccc(N4CCCCC4)cc3-c3cc(C(=O)NCc4cccc(C(F)(F)F)c4)ccn3)c2)c1 [Example 134, 2-(3-(3-(4-(piperidin-1-yl)-2-(4-(3-(trifluoromethyl)benzylcarbamoyl)pyridin-2-yl)phenylcarbamoyl)benzylthio)phenoxy)acetic acid] | 1 to 7.94 µM |
| O=C(O)CNC(=O)Cc1cccc(SCc2cccc(C(=O)Nc3ccc(N4CCCCC4)cc3-c3cc(C(=O)NCc4cccc(C(F)(F)F)c4)ccn3)c2)c1 [Example 139] | 10 to 31.6 µM |
| CN(C)c1ccc(CNC(=O)c2ccnc(-c3cc(N4CCCCC4)ccc3NC(=O)c3cccc(CSCCC(=O)O)c3)c2)cc1 [Example 1.10] | 1 to 7.94 µM |
| O=C(O)CCSCc1cccc(C(=O)Nc2ccc(N3CCCCC3)cc2-c2cc(C(=O)NCc3ccc(OC(F)(F)F)cc3)ccn2)c1 [Example 1.44] | 1 to 7.94 µM |
| O=C(O)CCSCc1cccc(C(=O)Nc2ccc(N3CCCCC3)cc2-c2cc(C(=O)NC3Cc4ccccc4C3)ccn2)c1 [Example 1.35] | 1 to 7.94 µM |
| O=C(O)CCSCc1cccc(C(=O)Nc2ccc(N3CCCCC3)cc2-c2cc(C(F)(F)c3cccc(C(F)(F)F)c3)ccn2)c1 [Example 93] | 10 to 31.6 µM |
| CN(CCN1CCN(C(=O)OC(C)(C)C)CC1)Cc1cccc(C(=O)Nc2ccc(N3CCCCC3)cc2-c2cc(C(=O)NCc3cccc(C(F)(F)F)c3)ccn2)c1 [Example 38, Tert-butyl 4-(2-(methyl(3-((4-(piperidin-1-yl)-2-(4-((3-(trifluoromethyl)benzyl)-carbamoyl)pyridin-2-yl)phenyl)carbamoyl)benzyl)amino)ethyl)piperazine-1-carboxylate] | 10 to 31.6 µM |
| CC(Nc1cc(-c2cc(N3CCCCC3)ccc2NC(=O)c2cccc(CSCCC(=O)O)c2)ncn1)c1cccc(C(F)(F)F)c1 (centres unmarked) [Example 76, 3-((3-((4-(Piperidin-1-yl)-2-(6-((1-(3-(trifluoromethyl)phenyl)ethyl)amino)pyrimidin-4-yl)phenyl)carbamoyl)benzyl)thio)propanoic acid] | 10 to 31.6 µM |
| O=C(O)CCSCc1cccc(C(=O)Nc2ccc(N3CCCCC3)cc2-c2cc(CNCc3cccc(C(F)(F)F)c3)ccn2)c1 [Example 7] | 10 to 31.6 µM |
| O=C(O)CCCC1CCN(C(=O)CCCC2CCN(C(=O)c3cccc(C(=O)Nc4ccc(N5CCCCC5)cc4-c4cc(C(=O)NCc5cccc(C(F)(F)F)c5)ccn4)c3)CC2)CC1 [Example 113] | 1 to 7.94 µM |
| O=C(O)CCSCc1cccc(C(=O)Nc2ccc(N3CCCCC3)cc2-c2cc(C(=O)NCc3ccc4c(c3)OCO4)ccn2)c1 [Example 1.23] | 1 to 7.94 µM |
| COCCNC(=O)N1CCN(CCN(C)Cc2cccc(C(=O)Nc3ccc(N4CCCCC4)cc3-c3cc(C(=O)NCc4cccc(C(F)(F)F)c4)ccn3)c2)CC1 [Example 208, N-(2-methoxyethyl)-4-(2-(methyl(3-(4-(piperidin-1-yl)-2-(4-(3-(trifluoromethyl)benzylcarbamoyl)pyridin-2-yl)phenylcarbamoyl)benzyl)amino)ethyl)piperazine-1-carboxamide] | 10 to 31.6 µM |
| O=C(O)CCSCc1cccc(C(=O)Nc2ccc(N3CCCCC3)cc2-c2cc(C(=O)NCc3ccc(-n4cccn4)cc3)ccn2)c1 [Example 79, 3-(3-((2-(4-((4-(1H-Pyrazol-1-yl)benzyl)carbamoyl)pyridin-2-yl)-4-(piperidin-1-yl)phenyl)carbamoyl)benzylthio)propanoic acid] | 10 to 31.6 µM |
| O=C(O)CCSCc1cccc(C(=O)Nc2ccc(N3CCCCC3)cc2-c2cc(C(=O)NCc3ccc(OC(F)(F)F)c(F)c3)ccn2)c1 [Example 1.26] | 1 to 7.94 µM |
| CCN(CC)c1ccc(NC(=O)c2cccc(C(=O)N3CCC[C@H](C(=O)NCCOC)C3)c2)c(-c2cc(C(=O)NCc3cccc(C(F)(F)F)c3)ccn2)c1 [Example 189, (S)-2-(5-(diethylamino)-2-(3-(3-((2-methoxyethyl)carbamoyl)piperidine-1-carbonyl)benzamido)phenyl)-N-(3-(trifluoromethyl)benzyl)isonicotinamide] | 1 to 7.94 µM |
| COc1ccc(C(F)(F)F)cc1CNC(=O)c1ccnc(-c2cc(N3CCCCC3)ccc2NC(=O)c2cccc(C(=O)N(C)CCN3CCOCC3)c2)c1 [Example 125, N1-(2-(4-((2-methoxy-5-(trifluoromethyl)benzyl)carbamoyl)pyridin-2-yl)-4-(piperidin-1-yl)phenyl)-N3-methyl-N3-(2-morpholinoethyl)isophthalamide] | 1 to 7.94 µM |
